Reference: ChEMBL document CHEMBL5665440, “ASAP - In vitro liver microsomal stability” (2024)

Experiment: Human liver microsomal stability of compound in microsomal protein, PBS buffer pH 7.4, NADPH, glucose-6-phosphate and glucose-6-phosphate dehydrogenase media. Aliquotes were taken at 5 time points and after stopping the reaction, supernatants were analyzed using HPLC coupled with a tandem mass spectrometer. The elimination constant, half-life, and intrinsic clearance are determined as results using linear regression analysis.
Assay type: ADME, microsomes, Microsome
Settings: for half-life / microsomal CLint: liver microsomes
For Remaining (without cofactor) in this document: time not given here.
For Remaining in this document: time not given here.

Row | Structure (SMILES) | half-life [h] | microsomal CLint [µL/min/mg] | Remaining (microsomes) [%] | Remaining (without cofactor) (microsomes) [%] | T1/2 (microsomes)
1 | CCc1cc(C(=O)Nc2cccc(CN)c2)sc1-c1ccc(Cl)cc1 | > 2.89 | < 10 | 114.72 | 98.952 | 
2 | NCc1cccc(NC(=O)c2cc(Cl)cc(CN)c2)c1 | 1.33 | 21 | 124.297 | 104.813 | 
3 | CC(C)NC(=O)[C@H](Nc1ccc2c(c1)CNC2)c1cc(Cl)cc2[nH]ncc12 | > 2.89 | < 10 | 91.546 | 107.23 | 
4 | O=C(Nc1cc(Cl)cc(C(=O)Nc2cccc(-n3nn[nH]c3=O)c2)c1)OCc1ccccc1 | 2.48 | 11.2 | 81.771 | 105.363 | 
5 | N#C[C@H](Nc1cccc(-c2nn[nH]n2)c1)c1cc(Cl)cc(NC(=O)OCc2ccccc2)c1 | 2.04 | 13.6 | 82.243 | 110.789 | 
6 | Clc1ccc2[nH]cc(Cc3ccc(-c4nn[nH]n4)cc3)c2c1 | > 2.89 | < 10 | 98.893 | 98.069 | 
7 | CNC(=O)[C@H](Nc1cc(CN)cc(C(=O)O)c1)c1cc(Cl)cc(C2CC2)c1 | > 2.89 | < 10 | 98.4 | 103.999 | 
8 | O=C(NCC(F)(F)F)c1cc(Cl)c(F)cc1NS(=O)(=O)c1ccc(Oc2ccccc2Cl)cc1 | 0.4 | 70 | 33 | 104 | 
9 | O=C(Nc1cc(Cl)cc(C(=O)Nc2ccc3c(c2)CNC3)c1)OCc1ccccc1 | 2.19 | 12.7 | 81.215 | 98.946 | 
10 | C=CC[C@H]1NCc2cc(NC(=O)c3cc(F)cc4[nH]ncc34)ccc21 | > 2.89 | < 10 | 97.296 | 93.037 | 
11 | N#C[C@H](Nc1cccc(C(=O)O)c1)c1cc(Cl)cc2[nH]ncc12 | 2.33 | 12 | 81.554 | 89.628 | 
12 | C=CC[C@H](Nc1ccc(-c2nn[nH]n2)cc1)c1cc(Cl)cc(NC(=O)OCc2ccccc2)c1 | 2.77 | 10.1 | 84.591 | 100.465 | 
13 | N#C[C@H](Nc1ccc2c(c1)CNC2)c1cc(Cl)cc2[nH]ncc12 | 2.71 | 10.3 | 84.178 | 84.336 | 
14 | NCCc1ccc(NC(=O)c2cc(Cl)cc(NC(=O)OCc3ccccc3)c2)cc1 | 1.59 | 17.5 | 76.258 | 74.637 | 
15 | NCc1cc(Cl)cc(C(=O)Nc2ccc3c(c2)CNC3)c1 |  |  | 0 | 109.308 | Half-life could not be determined
16 | O=C(Nc1cc(Cl)cc([C@H]2CN(Cc3ccccc3)C[C@@H]2c2cccc(-c3nn[nH]n3)c2)c1)OCc1ccccc1 | 0.601 | 46.3 | 46.707 | 96.205 | 
17 | CNC(=O)[C@H](Nc1cc(Cl)cc(NC(=O)OCc2ccccc2)c1)c1cccc(-c2nn[nH]n2)c1 | 1.31 | 21.3 | 70.065 | 102.307 | 
18 | NCc1cc(C(=O)O)cc([C@@H]2C[C@H]2c2cc(Cl)cc(NC(=O)OCc3ccccc3)c2)c1 | > 2.89 | < 10 | 89.704 | 102.436 | 
19 | NCc1cccc(NC(=O)C[C@@H](NC(=O)OCc2ccccc2)c2ccc(OCc3ccccc3)cc2)c1 | 1.64 | 17 | 76.547 | 105.768 | 
20 | O=C(O)c1cc(Cl)ccc1S(=O)(=O)NC1CCN(c2nc(C3CC3)cc(C(F)(F)F)n2)CC1 | 1.06 | 26.3 | 62.456 | 103.505 | 
21 | Cc1ccc(NC(=O)c2cc(Cl)cc(NC(=O)OCc3ccccc3)c2)cc1CN | > 2.89 | < 10 | 88.403 | 97.11 | 
22 | O=C(Nc1cc(Cl)cc(-c2ccc3[nH]c(C(=O)O)cc3c2)c1)OCc1ccccc1 | > 2.89 | < 10 | 92.268 | 98.779 | 
23 | O=C(Nc1cc(Cl)cc(C(=O)Nc2cccc(C3CCNCC3)c2)c1)OCc1ccccc1 | > 2.89 | < 10 | 91.016 | 98.201 | 
24 | c1ccc2c(CN3CCC(c4c[nH]c5cccnc45)CC3)c[nH]c2c1 | 1.69 | 16 | 78.186 | 103.226 | 

Row | Structure (SMILES) | half-life [h] | microsomal CLint [µL/min/mg] | Remaining (microsomes) [%] | Remaining (without cofactor) (microsomes) [%] | T1/2 (microsomes)
25 | NCc1cccc(NC(=O)c2cc(OCc3ccccc3)ccc2CNC(=O)OCc2ccccc2)c1 | 1.31 | 21 | 69 | 103 | 
26 | O=C(O)c1cc(Cl)ccc1NS(=O)(=O)c1ccc(-c2ccccc2Cl)cc1 | 0.0813 | 343 | 0.295 | 109.106 | 
27 | O=C(N[C@H]1[C@H]2CCCCC[C@H]2[C@H]1C(=O)Nc1cccc(C2CCNCC2)c1)OCc1ccccc1 | 0.89 | 31.3 | 58.639 | 103.638 | 
28 | O=C(Nc1ccc2c(c1)CNC2)c1cc(Cl)cc2c1CCC2 | > 2.89 | < 10 | 85.255 | 101.935 | 
29 | NCc1cccc([C@@H]2C[C@H]2c2cc(Cl)cc(NC(=O)OCc3ccccc3)c2)c1 | 2.44 | 11.4 | 87.168 | 92.769 | 
30 | NCc1cccc(NC(=O)c2cccn3cc(CN4CCCC4)nc23)c1 | > 2.89 | < 10 | 98.243 | 100.684 | 
31 | C=CC[C@H](Nc1cccc(-c2nn[nH]n2)c1)c1cc(Cl)cc(NC(=O)OCc2ccccc2)c1 | 0.425 | 65.5 | 34.146 | 93.066 | 
32 | NCc1cccc(NC(=O)CN(C(=O)OCc2ccccc2)c2ccc(OCc3ccccc3)cc2)c1 | 2.6 | 11 | 83 | 101 | 
33 | O=C(Nc1cc(Cl)cc([C@H](Nc2cccc(-c3nn[nH]n3)c2)C(=O)NCc2ccccc2)c1)OCc1ccccc1 | > 2.89 | < 10 | 93.548 | 99.519 | 
34 | OCC#C[C@H](Nc1ccc2c(c1)CNC2)c1cc(Cl)cc2[nH]ncc12 | > 2.89 | < 10 | 89.541 | 103.012 | 
35 | Cc1cc(OCc2ccccc2)ccc1NS(=O)(=O)c1ccc(Cl)cc1C(=O)O | 1.25 | 22.3 | 70.445 | 101.396 | 
36 | O=C(O)COc1cccc(NC(=O)c2cc(Cl)cc(NC(=O)OCc3ccccc3)c2)c1 | > 2.89 | < 10 | 98.934 | 109.497 | 
37 | CNC(=O)[C@H](Nc1cccc(-c2nn[nH]n2)c1)c1cc(Cl)cc2[nH]ncc12 | > 2.89 | < 10 | 97.01 | 105.868 | 
38 | NCc1cccc(NC(=O)[C@@H](NC(=O)OCc2ccccc2)C(C2CCC2)C2CCC2)c1 | 2.21 | 12.6 | 77.895 | 94.537 | 
39 | CNC(=O)[C@H](Nc1cc(CN)cc(-c2nn[nH]n2)c1)c1cc(Cl)cc(C2CC2)c1 | > 2.89 | < 10 | 95.463 | 101.856 | 
40 | CNC(=O)[C@H](Nc1ccc(-c2nnn[nH]2)cc1)c1cc(Cl)cc(C2CC2)c1 | > 2.89 | < 10 | 90.289 | 100.18 | 
41 | O=C(Nc1cc(Cl)cc(C(=O)Nc2cccc(-c3nnn[nH]3)c2)c1)OCc1ccccc1 | > 2.89 | < 10 | 88.987 | 100.499 | 
42 | Cc1cc(-c2ccc([C@@H](NC(=O)OCc3ccccc3)C(=O)Nc3cccc(CN)c3)cc2)cs1 | 0.943 | 29.5 | 62.909 | 101.077 | 
43 | Cc1c(C(=O)Nc2cc([C@H]3CCOC3)ccn2)cc(C2CC2)n1C | 0.482 | 57.7 | 39.342 | 94.838 | 
44 | O=C(O)c1cc(Cl)c(F)cc1S(=O)(=O)Nc1ccc(Oc2ccccc2Cl)cc1 | 0.413 | 67.4 | 33.369 | 97.65 | 
45 | Cn1ncc2c(C(=O)Nc3ccc4c(c3)CNC4)cc(Br)cc21 | > 2.89 | < 10 | 83.745 | 108.267 | 
46 | CC[C@@H](Cc1nnn[nH]1)c1ccc(NC(=O)c2cc(Cl)cc(NC(=O)OCc3ccccc3)c2)cc1 | 1.12 | 24.9 | 66.587 | 100.68 | 
47 | O=C(O)Cn1ncc2cc(-c3cc(Cl)cc(NC(=O)OCc4ccccc4)c3)ccc21 | > 2.89 | < 10 | 101.103 | 100.106 | 
48 | CC(C)CNC(=O)c1cc(Cl)c(F)cc1NS(=O)(=O)c1ccc(Oc2ccccc2Cl)cc1 | 0.14 | 198 | 4 | 98 | 
